The values below are quoted from earlier work in patent US20130022829A1, “OIL BORNE WOOD PRESERVING COMPOSITION FOR TREATMENT OF POLES, POSTS, PILING, CROSSTIES AND OTHER WOODED STRUCTURES” (Osmose, Inc., priority 2009, published 2013).

This data set relates to Poria. Conditions: background statement on copper soaps.

On to `CCCCC(CC)C(=O)[O-].CCCCC(CC)C(=O)[O-].[Cu+2]` (centres unmarked) [Cu-octoate], for which the “efficacy against copper tolerant fungi, e.g., Poria sp.” value is on record as “insufficient efficacy”. For Cu-naphthenate, the “efficacy against copper tolerant fungi, e.g., Poria sp.” value is on record as “insufficient efficacy”.
